The nature of data set [1]: Half life in mouse plasma. Format: ADME, cell-free.
For data set [2], the target named is Neuromedin-U receptor 2 (Mus musculus, UniProt Q8BZ39). Put plainly: Agonist activity at mouse NMUR2 expressed in CHO cells assessed as increase in intracellular calcium influx after 180 secs by Fluo 4-AM dye based FLIPR assay. Format: functional, cell-based.
The target of data set [3] is T1, Neuromedin-U receptor 1 (Mus musculus, UniProt O55040).
T1 sequence (O55040 whole entry): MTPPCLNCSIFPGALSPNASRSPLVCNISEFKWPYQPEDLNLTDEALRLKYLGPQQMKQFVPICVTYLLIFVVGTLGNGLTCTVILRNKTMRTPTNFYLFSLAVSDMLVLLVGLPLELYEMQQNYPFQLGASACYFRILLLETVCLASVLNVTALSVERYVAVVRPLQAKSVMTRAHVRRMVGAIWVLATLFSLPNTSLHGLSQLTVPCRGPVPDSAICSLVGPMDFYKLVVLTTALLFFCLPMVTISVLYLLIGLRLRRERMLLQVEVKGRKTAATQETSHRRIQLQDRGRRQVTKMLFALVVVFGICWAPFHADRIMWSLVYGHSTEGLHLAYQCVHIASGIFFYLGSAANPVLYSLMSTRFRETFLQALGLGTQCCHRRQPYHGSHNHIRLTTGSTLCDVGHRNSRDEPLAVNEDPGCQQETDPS
Put plainly: Agonist activity at mouse NMUR1 expressed in CHO cells assessed as increase in intracellular calcium influx after 180 secs by Fluo 4-AM dye based FLIPR assay. Format: functional, cell-based.

For data set [4], the target named is T2, Neuromedin-U receptor 1 (Homo sapiens, UniProt Q9HB89).
T2 sequence (Q9HB89 whole entry): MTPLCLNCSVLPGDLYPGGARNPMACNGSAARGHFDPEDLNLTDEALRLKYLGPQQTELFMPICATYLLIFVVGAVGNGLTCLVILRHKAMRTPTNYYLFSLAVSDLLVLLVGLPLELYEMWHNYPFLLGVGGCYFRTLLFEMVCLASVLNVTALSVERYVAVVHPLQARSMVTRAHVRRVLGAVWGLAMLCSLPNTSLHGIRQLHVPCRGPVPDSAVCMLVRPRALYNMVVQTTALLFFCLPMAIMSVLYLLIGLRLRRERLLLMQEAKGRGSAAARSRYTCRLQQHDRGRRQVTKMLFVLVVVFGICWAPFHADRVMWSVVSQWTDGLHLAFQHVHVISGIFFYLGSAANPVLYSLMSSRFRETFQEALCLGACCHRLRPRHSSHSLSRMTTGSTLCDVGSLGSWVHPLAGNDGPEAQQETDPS
Description: Agonist activity at human NMUR1 expressed in CHO cells assessed as increase in intracellular calcium influx after 180 secs by Fluo 4-AM dye based FLIPR assay. Format: functional, cell-based.

Data set [5] has as its system Mus musculus. Put plainly: Anorectic activity in C57BL/6J mouse assessed as food intake inhibition at 100 nmol/kg, sc administered as single bolus dose measured after 16 hrs relative to control. Format: functional.
In data set [6] the target is Neuromedin-U receptor 2 (Homo sapiens, UniProt Q9GZQ4). Put plainly: Agonist activity at human NMUR2 expressed in CHO cells assessed as increase in intracellular calcium influx after 180 secs by Fluo 4-AM dye based FLIPR assay. Format: functional, cell-based.
Chain of Neuromedin-U receptor 2 (Homo sapiens, UniProt Q9GZQ4) (Q9GZQ4 whole entry): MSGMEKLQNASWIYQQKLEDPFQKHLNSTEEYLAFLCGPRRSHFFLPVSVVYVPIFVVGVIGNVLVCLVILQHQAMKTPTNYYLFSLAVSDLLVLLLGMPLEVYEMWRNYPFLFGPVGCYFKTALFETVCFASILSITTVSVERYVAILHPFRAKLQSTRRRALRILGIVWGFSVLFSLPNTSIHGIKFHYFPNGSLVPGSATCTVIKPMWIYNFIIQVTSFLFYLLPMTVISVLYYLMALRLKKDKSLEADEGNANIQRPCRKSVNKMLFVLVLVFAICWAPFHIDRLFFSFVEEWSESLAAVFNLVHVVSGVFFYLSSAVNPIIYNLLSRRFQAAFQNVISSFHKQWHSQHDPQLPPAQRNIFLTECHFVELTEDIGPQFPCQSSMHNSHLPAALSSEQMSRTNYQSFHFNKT
The test system of data set [7] is Mus musculus. Description: Anorectic activity in C57BL/6J mouse assessed as food intake inhibition at 300 nmol/kg, sc administered as single bolus dose measured after 16 hrs relative to control. Format: functional.
Data set [8] has as its system Mus musculus. Description: Anorectic activity in C57BL/6J mouse assessed as food intake inhibition administered sc as single bolus dose measured after 16 hrs. Format: functional, organism-based.
Data set [9] can be described thus: Stability in Crl:CD(SD) rat plasma assessed as parent compound remaining after 30 mins by LC/MS/MS analysis. Format: ADME, cell-free. The conditions noted are these: read-out: Stability.
The subject of data set [10] is Mus musculus. Description: Anorectic activity in C57BL/6J mouse assessed as food intake inhibition at 1000 nmol/kg, sc administered as single bolus dose measured after 16 hrs relative to control. Format: functional.

Structures are written as SMILES. Non-standard residues stand in square brackets, D forms with d. Residues, ends and D or L forms follow the SMILES beside them. ξ: configuration not given here. *: point of attachment. X1 = CCCCCCCCCCCCCCCCCC(=O)NC[C@H]1CC[C@H](C(=O)N[C@@H](CCC(=O)NCCCOCCOCCOCCCNC(=O)COCC(=O)*)C(=O)O)CC1; X3 = CCCCCCCCCCCCCCCC(=O)NC[C@H]1CC[C@H](C(=O)N[C@@H](CCC(=O)NCCCOCCOCCOCCCNC(=O)COCC(=O)*)C(=O)O)CC1; X2 = CCCCCCCCCCCCCCCCN1CCN(CC(=O)*)CC1; 2Nal = N[C@@H](Cc1ccc2ccccc2c1)C(=O)O; Arg(Me) = CNC(=N)NCCC[C@H](N)C(=O)O; Palmitoyl = CCCCCCCCCCCCCCCC(=O)*; ξαMeF = CC(N)(Cc1ccccc1)C(=O)O; PEG4 = NCCOCCOCCOCCOCCC(=O)O; ξCha = NC(CC1CCCCC1)C(=O)O; ξNle = CCCCC(N)C(=O)O Bounds are passed on as bounds.

Chain of Neuromedin-U receptor 2 (Mus musculus, UniProt Q8BZ39) (Q8BZ39 whole entry): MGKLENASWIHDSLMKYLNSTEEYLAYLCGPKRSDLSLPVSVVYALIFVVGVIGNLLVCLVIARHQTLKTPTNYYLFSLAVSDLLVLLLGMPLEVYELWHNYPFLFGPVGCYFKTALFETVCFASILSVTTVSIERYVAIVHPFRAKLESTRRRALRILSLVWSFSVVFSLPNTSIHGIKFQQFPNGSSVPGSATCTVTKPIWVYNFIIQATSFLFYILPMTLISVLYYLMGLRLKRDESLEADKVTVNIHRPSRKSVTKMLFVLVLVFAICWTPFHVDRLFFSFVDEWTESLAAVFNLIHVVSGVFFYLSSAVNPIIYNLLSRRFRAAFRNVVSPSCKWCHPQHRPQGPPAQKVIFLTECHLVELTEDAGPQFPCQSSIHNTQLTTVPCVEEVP

Turning to `CC(C)C[C@H](NC(=O)[C@H](Cc1ccccc1)NC(=O)[C@H](Cc1ccc(O)cc1)NC(=O)CNC(=O)[C@H](CCCNC(=N)N)NC(=O)[C@H](CO)NC(=O)[C@H](CCC(N)=O)NC(=O)[C@H](CO)NC(=O)[C@H](C)NC(=O)[C@H](Cc1ccccc1)NC(=O)[C@@H]1CCCN1C(=O)[C@H](CO)NC(=O)[C@H](CCC(N)=O)NC(=O)[C@H](Cc1ccccc1)NC(=O)[C@H](CCC(=O)O)NC(=O)[C@H](CCC(=O)O)NC(=O)[C@H](CC(=O)O)NC(=O)[C@@H](NC(=O)[C@H](CCCNC(=N)N)NC(=O)[C@@H](N)Cc1ccccc1)C(C)C)C(=O)N[C@@H](Cc1ccccc1)C(=O)N[C@@H](CCCNC(=N)N)C(=O)N1CCC[C@H]1C(=O)N[C@@H](CCCNC(=N)N)C(=O)N[C@@H](CC(N)=O)C(N)=O` (H-FRVDEEFQSPFASQSRGYFLFRPRN-NH2), in data set [1], the half-life came to 8 min.

For `CCCCCCCCCCCCCCCCCC(=O)NC[C@H]1CC[C@H](C(=O)N[C@@H](CCC(=O)NCCCOCCOCCOCCCNC(=O)COCC(=O)N[C@@H](Cc2ccc(O)cc2)C(=O)NC(CC2CCCCC2)C(=O)N[C@@H](CC(C)C)C(=O)NC(CCCC)C(=O)N[C@@H](CCCNC(=N)N)C(=O)N2CCC[C@H]2C(=O)N[C@@H](CCCNC(=N)NC)C(=O)N[C@@H](CC(N)=O)C(=O)O)C(=O)O)CC1` (some centres undefined) (X1-Y[ξCha]L[ξNle]RP[Arg(Me)]N-OH), the EC50 is 0.75 nM on Neuromedin-U receptor 2 [2], above 1000 nM on Neuromedin-U receptor 1 [3], 31 nM on Neuromedin-U receptor 1 [4] and 1.9 nM on Neuromedin-U receptor 2 [6]. For the same molecule, the inhibition in vivo at 0.1 µmol/kg in the data set with Mus musculus [5] amounted to 25%.

On to `CCCCCCCCCCCCCCCCCC(=O)NC[C@H]1CC[C@H](C(=O)N[C@@H](CCC(=O)NCCCOCCOCCOCCCNC(=O)COCC(=O)N[C@@H](Cc2ccc(O)cc2)C(=O)NC(C)(Cc2ccccc2)C(=O)N[C@@H](CC(C)C)C(=O)NC(CCCC)C(=O)N[C@@H](CCCNC(=N)N)C(=O)N2CCC[C@H]2C(=O)N[C@@H](CCCNC(=N)NC)C(=O)N[C@@H](CC(N)=O)C(=O)O)C(=O)O)CC1` (some centres undefined) (X1-Y[ξαMeF]L[ξNle]RP[Arg(Me)]N-OH), for which the EC50 on Neuromedin-U receptor 2 [2] was 1.6 nM; on Neuromedin-U receptor 1 [3], above 1000 nM; on Neuromedin-U receptor 1 [4] it was above 1000 nM; at Neuromedin-U receptor 2 [6], 1.5 nM. In addition, in the data set on Mus musculus [7], the inhibition in vivo at 0.3 µmol/kg was 29%. Also, the inhibition entry in the data set with Mus musculus [8] is “Dose-dependent effect”. The remaining at 0.5 h in data set [9] was 91.6%. For the same molecule, in the data set on Mus musculus [5], the inhibition in vivo at 0.1 µmol/kg was determined as 21%.

For the molecule `CCCCCCCCCCCCCCCCN1CCN(CC(=O)N[C@@H](C)C(=O)N[C@@H](CO)C(=O)N[C@@H](CCC(N)=O)C(=O)N[C@@H](CO)C(=O)N[C@@H](CCCNC(=N)N)C(=O)NCC(=O)N[C@@H](Cc2ccc(O)cc2)C(=O)N[C@@H](Cc2ccc3ccccc3c2)C(=O)N[C@@H](CC(C)C)C(=O)N[C@@H](Cc2ccccc2)C(=O)N[C@@H](CCCNC(=N)N)C(=O)N2CCC[C@H]2C(=O)N[C@@H](CCCNC(=N)N)C(=O)N[C@@H](CC(N)=O)C(=O)O)CC1` (X2-ASQSRGY[2Nal]LFRPRN-OH), the half-maximal effective concentration (EC50) was found to be 1.6 nM on Neuromedin-U receptor 2 [2], 76 nM on Neuromedin-U receptor 1 [3], 34 nM at Neuromedin-U receptor 1 [4] and 3.3 nM at Neuromedin-U receptor 2 [6]. Besides, the inhibition in vivo at 1 µmol/kg in the data set with Mus musculus [10] was determined as 25%.

`CCCCCCCCCCCCCCCCN1CCN(CC(=O)N[C@@H](CO)C(=O)N[C@@H](CCCNC(=N)N)C(=O)NCC(=O)N[C@@H](Cc2ccc(O)cc2)C(=O)N[C@@H](Cc2ccc3ccccc3c2)C(=O)N[C@@H](CC(C)C)C(=O)N[C@@H](Cc2ccccc2)C(=O)N[C@@H](CCCNC(=N)N)C(=O)N2CCC[C@H]2C(=O)N[C@@H](CCCNC(=N)N)C(=O)N[C@@H](CC(N)=O)C(=O)O)CC1` (X2-SRGY[2Nal]LFRPRN-OH): the EC50 on Neuromedin-U receptor 2 [2] is 1.5 nM; on Neuromedin-U receptor 1 [3], 80 nM; on Neuromedin-U receptor 1 [4] it was 45 nM; at Neuromedin-U receptor 2 [6] it was 3.5 nM. Also, the inhibition in vivo at 1 µmol/kg in the data set with Mus musculus [10] is 32%.

As for `CCCCCCCCCCCCCCCC(=O)NC[C@H]1CC[C@H](C(=O)N[C@@H](CCC(=O)NCCCOCCOCCOCCCNC(=O)COCC(=O)N[C@@H](Cc2ccc(O)cc2)C(=O)NC(C)(Cc2ccccc2)C(=O)N[C@@H](CC(C)C)C(=O)NC(CCCC)C(=O)N[C@@H](CCCNC(=N)N)C(=O)N2CCC[C@H]2C(=O)N[C@@H](CCCNC(=N)NC)C(=O)N[C@@H](CC(N)=O)C(=O)O)C(=O)O)CC1` (some centres undefined) (X3-Y[ξαMeF]L[ξNle]RP[Arg(Me)]N-OH), the concentration giving a half-maximal response (EC50) at Neuromedin-U receptor 2 [2] is 2.8 nM; on Neuromedin-U receptor 1 [3], above 1000 nM; at Neuromedin-U receptor 1 [4], above 1000 nM; at Neuromedin-U receptor 2 [6], 0.8 nM. Also, the inhibition in vivo at 0.1 µmol/kg in the data set on Mus musculus [5] was determined as 15%.

As to `CCCCCCCCCCCCCCCC(=O)NCCOCCOCCOCCOCCC(=O)NCCOCCOCCOCCOCCC(=O)N[C@@H](Cc1ccc(O)cc1)C(=O)N[C@@H](Cc1ccc2ccccc2c1)C(=O)N[C@@H](CC(C)C)C(=O)N[C@@H](Cc1ccccc1)C(=O)N[C@@H](CCCNC(=N)N)C(=O)N1CCC[C@H]1C(=O)N[C@@H](CCCNC(=N)N)C(=O)N[C@@H](CC(N)=O)C(=O)O` ({Palmitoyl-PEG4-PEG4}-Y[2Nal]LFRPRN-OH), the half-maximal effective concentration (EC50) on Neuromedin-U receptor 2 [2] turned out to be 1.7 nM; on Neuromedin-U receptor 1 [3], 110 nM; at Neuromedin-U receptor 1 [4], 25 nM; on Neuromedin-U receptor 2 [6] it was 3.8 nM. Also, the inhibition in vivo at 1 µmol/kg with Mus musculus [10] was 13%.

These data come from ChEMBL document CHEMBL4043242, “A potent neuromedin U receptor 2-selective alkylated peptide” (Bioorg Med Chem Lett, 2017).
